Active and inactive are the calls of the source.
What was measured:
[1] = molecular target: Insulin-degrading enzyme (Homo sapiens, UniProt P14735); test: Dose Response: Fluorescence polarization-based cell-based high throughput dose response assay for inhibitors of insulin-degrading enzyme (IDE). [Related pubchem assays: 434962 (Primary screen (IDE inhibitors in singlicate)), 449730 (Counterscreen (Cytotoxicity in triplicate)), 435028 (Confirmation (IDE inhibitors in triplicate)), 434984 (Summary …; assay type: functional
[2] = Counterscreen for IDE inhibitors: Luminescence-based cell-based high throughput dose response assay to identify compounds that are cytotoxic to HEK cells. [Related pubchem assays: 434962 (Primary screen (IDE inhibitors in singlicate)), 449730 (Counterscreen (Cytotoxicity in triplicate)), 435028 (Confirmation (IDE inhibitors in triplicate)) …; assay type: functional; conditions: HEK293
[3] = molecular target: T1, Hexokinase HKDC1 (Homo sapiens, UniProt Q2TB90); test: inhibition of HKDC1 glucose phosphorylation – biochemical, W721R variant, dose response (AID 504729); assay type: functional
T1 sequence (Q2TB90 whole entry): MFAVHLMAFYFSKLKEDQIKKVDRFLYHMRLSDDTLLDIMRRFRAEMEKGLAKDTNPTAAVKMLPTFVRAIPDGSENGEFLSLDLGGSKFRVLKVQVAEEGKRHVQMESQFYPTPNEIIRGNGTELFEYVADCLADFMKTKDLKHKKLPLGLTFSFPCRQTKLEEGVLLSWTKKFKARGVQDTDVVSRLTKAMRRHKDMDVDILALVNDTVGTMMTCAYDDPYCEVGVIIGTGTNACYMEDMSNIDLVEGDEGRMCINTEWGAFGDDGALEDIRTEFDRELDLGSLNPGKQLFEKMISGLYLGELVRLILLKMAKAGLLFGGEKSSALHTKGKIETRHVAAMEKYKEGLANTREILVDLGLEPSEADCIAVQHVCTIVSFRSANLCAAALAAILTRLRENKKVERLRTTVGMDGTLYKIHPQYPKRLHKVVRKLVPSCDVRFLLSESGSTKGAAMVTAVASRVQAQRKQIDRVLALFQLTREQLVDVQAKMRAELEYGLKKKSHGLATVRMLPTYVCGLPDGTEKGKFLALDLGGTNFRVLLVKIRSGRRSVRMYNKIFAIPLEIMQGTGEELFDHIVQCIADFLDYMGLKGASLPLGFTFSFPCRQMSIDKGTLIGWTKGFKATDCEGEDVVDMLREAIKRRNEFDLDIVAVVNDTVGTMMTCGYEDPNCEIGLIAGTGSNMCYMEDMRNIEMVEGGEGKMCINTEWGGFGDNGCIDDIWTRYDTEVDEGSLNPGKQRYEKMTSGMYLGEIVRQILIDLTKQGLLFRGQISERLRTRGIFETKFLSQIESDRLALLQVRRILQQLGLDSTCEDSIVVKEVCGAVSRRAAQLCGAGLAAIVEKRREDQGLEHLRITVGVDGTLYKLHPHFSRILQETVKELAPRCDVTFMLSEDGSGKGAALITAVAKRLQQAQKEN

[4] = molecular target: Beta Lactamase (Pseudomonas aeruginosa, UniProt Q932Y6); test: BLA reporter interference, concentration series – BLA reporter cells, FRET fluorescence, artefact control for TLR9-MyD88 binding inhibitor project, dose response (AID 588341); assay type: cell-based;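 also: cell based assay in CHO-K1 cells stably expressing beta-lactamase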
[5] = tested on: CHO; test: CHO cell viability loss, potency – luminescence, cytotoxicity control for TLR9-MyD88 binding inhibitor project, dose response (AID 588339); assay type: functional, cell-based, hamster; conditions: Cricetulus griseus;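 also: CHO cells stably coexpressing TLR9 and MyD88 fusions from primary screen; compound exposure lasted 48 hours before viability readout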
[6] = molecular target: T2, Histone-lysine N-methyltransferase NSD2 (Homo sapiens, UniProt O96028); assay type: biochemical
T2 sequence (O96028 whole entry): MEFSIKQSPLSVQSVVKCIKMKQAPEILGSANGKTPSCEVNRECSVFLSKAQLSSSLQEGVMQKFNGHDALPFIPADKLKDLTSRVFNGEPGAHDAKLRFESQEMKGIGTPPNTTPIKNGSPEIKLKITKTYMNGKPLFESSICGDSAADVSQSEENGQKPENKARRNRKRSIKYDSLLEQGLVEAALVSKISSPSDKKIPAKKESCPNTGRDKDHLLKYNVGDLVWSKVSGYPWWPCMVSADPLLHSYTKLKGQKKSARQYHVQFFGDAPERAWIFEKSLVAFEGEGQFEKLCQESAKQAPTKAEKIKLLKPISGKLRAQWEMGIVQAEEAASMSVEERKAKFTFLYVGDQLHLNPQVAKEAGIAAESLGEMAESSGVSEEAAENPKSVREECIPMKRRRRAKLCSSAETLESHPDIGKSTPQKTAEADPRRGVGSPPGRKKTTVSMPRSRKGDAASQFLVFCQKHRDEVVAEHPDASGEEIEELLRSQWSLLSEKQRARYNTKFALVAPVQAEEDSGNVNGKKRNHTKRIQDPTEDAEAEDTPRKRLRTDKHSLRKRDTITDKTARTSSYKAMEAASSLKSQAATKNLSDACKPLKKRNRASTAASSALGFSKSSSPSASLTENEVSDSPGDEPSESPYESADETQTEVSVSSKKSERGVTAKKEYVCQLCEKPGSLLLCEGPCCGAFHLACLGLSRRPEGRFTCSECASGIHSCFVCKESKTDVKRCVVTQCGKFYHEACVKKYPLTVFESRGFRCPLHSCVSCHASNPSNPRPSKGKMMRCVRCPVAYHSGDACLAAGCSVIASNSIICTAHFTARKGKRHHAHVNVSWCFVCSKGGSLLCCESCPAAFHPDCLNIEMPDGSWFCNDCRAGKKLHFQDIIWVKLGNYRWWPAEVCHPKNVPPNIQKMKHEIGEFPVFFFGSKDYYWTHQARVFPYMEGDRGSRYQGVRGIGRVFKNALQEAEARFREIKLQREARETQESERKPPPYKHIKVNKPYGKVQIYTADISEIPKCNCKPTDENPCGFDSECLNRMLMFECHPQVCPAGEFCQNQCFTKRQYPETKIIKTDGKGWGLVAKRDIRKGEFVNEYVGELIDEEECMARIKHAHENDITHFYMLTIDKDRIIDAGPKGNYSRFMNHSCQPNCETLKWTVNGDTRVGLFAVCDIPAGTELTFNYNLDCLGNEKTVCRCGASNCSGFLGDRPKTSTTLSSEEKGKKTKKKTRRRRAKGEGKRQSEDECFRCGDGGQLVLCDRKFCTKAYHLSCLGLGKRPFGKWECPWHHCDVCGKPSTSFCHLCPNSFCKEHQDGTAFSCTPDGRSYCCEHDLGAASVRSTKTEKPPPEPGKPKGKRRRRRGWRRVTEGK

[7] = viability loss in THP-1 monocytes – THP-1 cells, cytotoxicity control for Vif-APOBEC3G degradation inhibitor project, dose response (AID 1117359); assay type: functional; conditions: THP-1
[8] = molecular target: Genome polyprotein (dengue virus type 2, UniProt P29990); test: flavivirus cap methylation enzyme inhibition – biochemical, confirmation dose response, primary screen (AID 588689); assay type: functional
[9] = molecular target: Heat shock protein HSP 90-alpha (Homo sapiens, UniProt P07900); assay type: functional, organism-based
[10] = molecular target: Wee1-like protein kinase (Homo sapiens, UniProt P30291); test: Dose Response Cell-based Assay for Inhibitors of Wee1 Degradation. [Related pubchem assays: 1410, 1321 ]; assay type: functional
[11] = molecular target: G2/mitotic-specific cyclin-B1 (Homo sapiens, UniProt P14635); test: Counterscreen assay for inhibitors of Wee1 degradation: dose response cell-based assay to identify inhibitors of cyclin B degradation. [Related pubchem assays: 1410, 1321 ]; assay type: functional
[12] = intracellular Trypanosoma cruzi inhibitors in host cells – cell-based, plate reader, cherry-pick samples, set 3, dose response (AID 651818); assay type: functional;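 also: compounds incubated with infected cells for about four days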
[13] = growth inhibition of yeast DHODH-expressing 3D7 parasites – SYBR Green, dry powder samples, dose response (AID 1159570); assay type: functional, cell-based;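 also: parasite growth measured after 72 hours of compound exposure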
[14] = growth inhibition of PfATP4-mutant resistant parasites – NITD609-resistant line, SYBR Green, dry powder, dose response (AID 1159571); assay type: functional, cell-based;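 also: parasites synchronized at ring stage by sorbitol before testing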
[15] = Dd2 malaria parasite growth inhibition potency – SYBR Green, dry powder samples, dose response (AID 1159566); assay type: functional, cell-based;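 also: potency for growth inhibition with lower SYBR green DNA signal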
[16] = toxicity to human hepatoma HepG2 cells – cell-based, cherry-picked samples, cytotoxicity control, dose response (AID 1159577); assay type: functional
[17] = toxicity to human HepG2 hepatoma cells – cell-based, plate reader, dry powder samples, cytotoxicity control, dose response (AID 1159569); assay type: functional;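 also: inhibitor potency with signal falling toward the positive control level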
[18] = P. falciparum Dd2 growth inhibitors, dose response, SYBR Green, cherry-picked samples (AID 1159567); assay type: functional, cell-based
[19] = molecular target: T3, Low molecular weight phosphotyrosine protein phosphatase (Homo sapiens, UniProt P24666); test: inhibition of human LMPTP enzyme activity – biochemical, absorbance, pNPP substrate, LMPTP-A isoform, set 2, orthogonal assay, dose response (AID 743308); assay type: functional
T3 sequence (P24666 whole entry): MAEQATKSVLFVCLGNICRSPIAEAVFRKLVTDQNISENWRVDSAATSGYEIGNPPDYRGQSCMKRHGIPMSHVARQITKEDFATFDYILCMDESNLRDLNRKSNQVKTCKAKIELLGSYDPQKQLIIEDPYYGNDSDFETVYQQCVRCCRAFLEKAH

[20] = molecular target: T3, Low molecular weight phosphotyrosine protein phosphatase; test: inhibition of LMPTP-A enzymatic activity – biochemical, OMFP substrate, fluorescence intensity, set 2, dose response (AID 743307); assay type: functional

Sequence of Beta Lactamase (Q932Y6 whole entry, the tested form may be a part): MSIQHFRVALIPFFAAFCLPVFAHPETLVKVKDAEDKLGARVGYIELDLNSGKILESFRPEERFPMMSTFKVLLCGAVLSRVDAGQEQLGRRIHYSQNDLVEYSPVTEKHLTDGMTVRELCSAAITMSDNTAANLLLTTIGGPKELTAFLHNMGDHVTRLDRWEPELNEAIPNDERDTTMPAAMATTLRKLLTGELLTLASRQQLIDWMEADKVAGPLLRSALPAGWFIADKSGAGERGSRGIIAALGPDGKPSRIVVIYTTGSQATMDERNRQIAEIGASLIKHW
Sequence of Insulin-degrading enzyme (P14735 whole entry): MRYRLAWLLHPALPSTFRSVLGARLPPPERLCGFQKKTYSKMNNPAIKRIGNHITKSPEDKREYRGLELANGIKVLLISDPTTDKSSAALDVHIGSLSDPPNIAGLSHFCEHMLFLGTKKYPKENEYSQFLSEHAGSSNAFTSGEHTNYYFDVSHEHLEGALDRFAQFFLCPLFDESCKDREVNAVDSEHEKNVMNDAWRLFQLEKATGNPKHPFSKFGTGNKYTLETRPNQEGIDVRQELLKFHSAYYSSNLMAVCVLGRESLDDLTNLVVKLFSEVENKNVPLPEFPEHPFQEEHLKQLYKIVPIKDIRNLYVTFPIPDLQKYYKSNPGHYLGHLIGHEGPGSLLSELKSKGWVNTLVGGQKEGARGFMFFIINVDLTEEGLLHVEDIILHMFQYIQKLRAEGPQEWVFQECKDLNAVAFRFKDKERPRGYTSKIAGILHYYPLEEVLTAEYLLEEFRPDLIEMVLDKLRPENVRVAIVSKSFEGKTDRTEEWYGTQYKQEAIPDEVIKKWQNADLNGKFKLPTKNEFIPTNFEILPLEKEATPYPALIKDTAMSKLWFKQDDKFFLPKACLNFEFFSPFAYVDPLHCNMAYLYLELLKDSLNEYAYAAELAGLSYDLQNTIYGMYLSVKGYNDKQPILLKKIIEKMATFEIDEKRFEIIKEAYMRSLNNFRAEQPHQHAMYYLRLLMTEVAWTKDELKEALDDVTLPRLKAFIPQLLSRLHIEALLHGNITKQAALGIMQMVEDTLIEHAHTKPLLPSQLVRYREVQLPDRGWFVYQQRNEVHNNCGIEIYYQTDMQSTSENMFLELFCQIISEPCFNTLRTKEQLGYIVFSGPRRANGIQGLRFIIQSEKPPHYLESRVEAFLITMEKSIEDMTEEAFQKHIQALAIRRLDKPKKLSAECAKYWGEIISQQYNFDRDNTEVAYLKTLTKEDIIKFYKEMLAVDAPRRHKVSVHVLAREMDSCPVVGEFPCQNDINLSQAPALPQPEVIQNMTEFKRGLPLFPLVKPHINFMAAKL
Sequence of G2/mitotic-specific cyclin-B1 (P14635 whole entry): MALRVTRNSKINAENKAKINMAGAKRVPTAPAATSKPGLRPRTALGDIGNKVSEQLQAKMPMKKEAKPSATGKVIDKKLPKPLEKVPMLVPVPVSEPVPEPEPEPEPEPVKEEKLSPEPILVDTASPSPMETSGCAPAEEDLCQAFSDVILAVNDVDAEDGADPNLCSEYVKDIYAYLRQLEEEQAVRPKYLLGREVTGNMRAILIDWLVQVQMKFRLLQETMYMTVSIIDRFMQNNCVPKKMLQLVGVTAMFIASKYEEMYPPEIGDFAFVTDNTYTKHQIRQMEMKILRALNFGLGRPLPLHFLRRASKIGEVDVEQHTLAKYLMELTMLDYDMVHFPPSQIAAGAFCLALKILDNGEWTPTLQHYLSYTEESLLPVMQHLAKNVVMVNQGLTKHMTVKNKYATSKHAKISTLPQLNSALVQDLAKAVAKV
Sequence of Wee1-like protein kinase (P30291 whole entry): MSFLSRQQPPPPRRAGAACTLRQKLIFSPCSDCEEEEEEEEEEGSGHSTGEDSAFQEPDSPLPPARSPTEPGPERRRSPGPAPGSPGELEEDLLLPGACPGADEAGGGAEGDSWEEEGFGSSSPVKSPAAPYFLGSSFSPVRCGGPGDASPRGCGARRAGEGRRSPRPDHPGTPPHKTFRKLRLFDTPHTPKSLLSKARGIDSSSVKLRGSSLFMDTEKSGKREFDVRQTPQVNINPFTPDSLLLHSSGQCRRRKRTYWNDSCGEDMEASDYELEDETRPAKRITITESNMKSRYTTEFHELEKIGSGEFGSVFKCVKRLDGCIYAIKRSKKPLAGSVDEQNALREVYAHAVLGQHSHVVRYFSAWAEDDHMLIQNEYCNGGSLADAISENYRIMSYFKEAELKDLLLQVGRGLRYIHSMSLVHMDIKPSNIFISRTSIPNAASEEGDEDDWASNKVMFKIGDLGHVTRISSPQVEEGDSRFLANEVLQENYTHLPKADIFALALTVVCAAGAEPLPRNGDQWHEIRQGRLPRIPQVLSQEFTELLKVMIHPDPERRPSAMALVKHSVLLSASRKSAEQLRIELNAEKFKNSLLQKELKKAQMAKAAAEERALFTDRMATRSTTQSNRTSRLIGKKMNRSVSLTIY
Sequence of Genome polyprotein (P29990 2492-3391 limits assumed): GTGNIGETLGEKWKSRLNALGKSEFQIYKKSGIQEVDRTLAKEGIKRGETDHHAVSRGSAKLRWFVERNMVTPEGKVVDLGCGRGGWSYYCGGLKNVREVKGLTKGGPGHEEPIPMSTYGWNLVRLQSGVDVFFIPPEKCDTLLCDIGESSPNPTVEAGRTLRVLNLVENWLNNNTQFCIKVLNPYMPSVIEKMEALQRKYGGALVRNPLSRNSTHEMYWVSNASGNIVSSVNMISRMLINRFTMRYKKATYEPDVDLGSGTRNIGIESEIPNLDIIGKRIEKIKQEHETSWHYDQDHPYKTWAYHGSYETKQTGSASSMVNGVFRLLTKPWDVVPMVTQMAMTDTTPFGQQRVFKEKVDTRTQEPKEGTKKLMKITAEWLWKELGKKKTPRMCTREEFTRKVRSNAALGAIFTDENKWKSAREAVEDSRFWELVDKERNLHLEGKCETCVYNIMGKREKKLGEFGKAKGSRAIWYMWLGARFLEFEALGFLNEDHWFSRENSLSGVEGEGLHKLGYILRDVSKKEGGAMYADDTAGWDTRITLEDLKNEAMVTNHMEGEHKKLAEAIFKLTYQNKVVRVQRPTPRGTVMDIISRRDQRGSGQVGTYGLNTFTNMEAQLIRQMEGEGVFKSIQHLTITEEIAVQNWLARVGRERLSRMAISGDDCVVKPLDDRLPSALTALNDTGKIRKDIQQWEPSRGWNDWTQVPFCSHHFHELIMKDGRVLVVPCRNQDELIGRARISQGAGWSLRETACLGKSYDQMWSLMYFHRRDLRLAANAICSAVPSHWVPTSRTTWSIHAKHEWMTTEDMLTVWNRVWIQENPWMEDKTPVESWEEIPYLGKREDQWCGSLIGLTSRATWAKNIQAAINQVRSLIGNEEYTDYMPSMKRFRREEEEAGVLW

Question: Which IC50 [1] does the source give for C=CCN(C(=O)COC(=O)c1cc[n+]([O-])cc1)c1nc(-c2ccccc2)cs1 here?
Answer: 4.84 µM (active)

Question: What about the IC50 [2] of the same compound?
Answer: 50.6 µM (not active)

Question: What does the source list for O=C1C(Cl)=C(Oc2ccccc2)C(=O)c2ccccc21?
Answer: IC50 [3]: 4.47 µM (active); IC50 [4]: 10.2 µM (inactive); IC50 [5]: 0.738 µM (active); AC50 [6]: 0.598 µM (active); CC50 [7]: > 40 µM (active); IC50 [8]: 4.63 µM (active); AC50 [9]: 2.7 µM (active)

Question: Which results are given for O/C(=C\c1nc2ccccc2nc1O)c1cccs1?
Answer: EC50 [10]: > 49.7 µM (not active); EC50 [11]: > 49.7 µM (not active)

Question: With C[C@H](CO)N1C[C@H](C)[C@H](CN(C)Cc2ccc(C(F)(F)F)cc2)Oc2c(NC(=O)c3nc4ccccc4s3)cccc2C1=O as the compound, how does the AC50 [12] read?
Answer: 0.94 µM (active)

Question: What about the AC50 [13] of the same compound?
Answer: 3.74 µM (active)

Question: And the AC50 [14]?
Answer: 1.69 µM (active)

Question: What about the AC50 [15] of the same compound?
Answer: 0.823 µM (active)

Question: What about the AC50 [16] of the same compound?
Answer: > 39 µM (inactive)

Question: What about the AC50 [17] of the same compound?
Answer: 46.2 µM (active)

Question: What about the AC50 [18] of the same compound?
Answer: 2.71 µM (active)

Question: With c1ccc(-c2nc(NCCCN3CCCCC3)c3ccccc3n2)cc1 as the compound, how does the IC50 [19] read?
Answer: 38.6 µM (inactive)

Question: What about the IC50 [20] of the same compound?
Answer: 21.9 µM (inactive)

Question: What does the source list for Clc1ccccc1-c1cc(NCCCN2CCCCC2)c2ccccc2n1?
Answer: IC50 [19]: 32.5 µM (inactive); IC50 [20]: 11.6 µM (active)

— ChEMBL document CHEMBL1201862, “PubChem BioAssay data set” (2004)
